Reference: ChEMBL document CHEMBL5393444, “Sulfonamide derivatives as ctps1 inhibitors” (2022)

Tests used:
CTP synthase 1 = biological target: T1, CTP synthase 1 (Homo sapiens, UniProt P17812); experiment: Inhibition of C-terminal FLAG-His8-tagged full length human CTPS1 preincubated for 10 mins followed by substrate addition by ADP-Glo assay
T1 sequence (P17812 whole entry): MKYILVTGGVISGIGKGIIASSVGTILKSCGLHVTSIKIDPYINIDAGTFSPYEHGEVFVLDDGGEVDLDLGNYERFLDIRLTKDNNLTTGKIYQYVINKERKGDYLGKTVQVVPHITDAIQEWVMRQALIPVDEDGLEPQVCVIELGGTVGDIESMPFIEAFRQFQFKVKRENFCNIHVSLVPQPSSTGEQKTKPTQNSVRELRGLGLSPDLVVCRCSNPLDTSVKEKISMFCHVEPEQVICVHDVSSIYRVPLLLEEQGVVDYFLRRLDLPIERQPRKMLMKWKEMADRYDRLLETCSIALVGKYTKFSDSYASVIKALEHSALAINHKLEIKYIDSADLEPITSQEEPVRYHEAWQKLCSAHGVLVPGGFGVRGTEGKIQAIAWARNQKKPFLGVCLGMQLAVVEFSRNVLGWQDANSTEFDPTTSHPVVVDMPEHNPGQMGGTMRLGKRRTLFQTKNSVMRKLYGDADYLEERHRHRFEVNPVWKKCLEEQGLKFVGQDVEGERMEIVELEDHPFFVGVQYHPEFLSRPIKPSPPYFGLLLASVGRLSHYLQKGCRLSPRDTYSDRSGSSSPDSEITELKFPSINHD

Homo sapiens = species: Homo sapiens; experiment: Selectivity ratio of IC50 for human CTPS2 to IC50 for human CTPS1 by RapidFire/MS analysis

## CCOc1cncc(-c2ccc(NC(=O)C(CC)c3cncc(NS(=O)(=O)C4CC4)n3)cc2)n1 (stereo unspecified)
CTP synthase 1
  IC50: ≤ 100 nM
Homo sapiens
  Ratio IC50: > 60

## CCC(C(=O)Nc1ccc(-c2cncc(OC(C)C)n2)cn1)c1ccnc(NS(=O)(=O)C2CC2)n1 (stereo unspecified)
CTP synthase 1
  IC50: ≤ 100 nM
Homo sapiens
  Ratio IC50: > 60

## CCOc1cncc(-c2ccc(NC(=O)C(OC)c3ccnc(NS(=O)(=O)C4CC4)n3)cc2)n1 (stereo unspecified)
CTP synthase 1
  IC50: ≤ 100 nM
Homo sapiens
  Ratio IC50: 2

## CCC(C(=O)Nc1ccc(-c2cncc(OC)n2)cn1)c1ccnc(NS(=O)(=O)C2CC2)n1 (stereo unspecified)
CTP synthase 1
  IC50: ≤ 100 nM
Homo sapiens
  Ratio IC50: > 60

## CCOc1cncc(-c2ccc(NC(=O)C(CC)c3cncc(NS(=O)(=O)C4CC4)n3)nc2)n1 (stereo unspecified)
CTP synthase 1
  IC50: ≤ 100 nM
Homo sapiens
  Ratio IC50: > 60

## CCOc1cncc(-c2ccc(NC(=O)C(C)(C)c3ccnc(NS(=O)(=O)C4CC4)n3)c(F)c2)n1
CTP synthase 1
  IC50: ≤ 100 nM
Homo sapiens
  Ratio IC50: 2

## CCOc1cncc(-c2ccc(NC(=O)C(CC)c3cccc(NS(=O)(=O)C4CC4)n3)nc2)n1 (stereo unspecified)
CTP synthase 1
  IC50: ≤ 100 nM
Homo sapiens
  Ratio IC50: 30

## CCC(C(=O)Nc1ccc(-c2cncc(OCC(F)(F)F)n2)cc1)c1ccnc(NS(=O)(=O)C2CC2)n1 (stereo unspecified)
CTP synthase 1
  IC50: ≤ 100 nM
Homo sapiens
  Ratio IC50: > 60

## CCOc1cncc(-c2ccc(NC(=O)C(C)(C)c3cncc(NS(=O)(=O)C4CC4)n3)cc2)n1
CTP synthase 1
  IC50: ≤ 100 nM
Homo sapiens
  Ratio IC50: > 60

## CCOc1cncc(-c2ccc(NC(=O)C(C)(C)c3ccnc(NS(=O)(=O)C4CC4)n3)nc2)n1
CTP synthase 1
  IC50: ≤ 100 nM
Homo sapiens
  Ratio IC50: > 60

## CCOc1cncc(-c2ccc(NC(=O)C3(c4ccnc(NS(=O)(=O)C5CC5)n4)CCC(F)(F)CC3)nc2)n1
CTP synthase 1
  IC50: ≤ 100 nM
Homo sapiens
  Ratio IC50: > 60

## CCC(C(=O)Nc1ccc(-c2cncc(OC)n2)cc1F)c1ccnc(NS(=O)(=O)C2CC2)n1 (stereo unspecified)
CTP synthase 1
  IC50: ≤ 100 nM
Homo sapiens
  Ratio IC50: 2

## CCOc1cncc(-c2cnc(NC(=O)C(CC)c3ccnc(NS(=O)(=O)C4CC4)n3)c(F)c2)n1 (stereo unspecified)
CTP synthase 1
  IC50: ≤ 100 nM
Homo sapiens
  Ratio IC50: 30

## CCOc1cncc(-c2ccc(NC(=O)C(C)(CCOC)c3cncc(NS(=O)(=O)C4CC4)n3)nc2)n1 (stereo unspecified)
CTP synthase 1
  IC50: ≤ 100 nM
Homo sapiens
  Ratio IC50: > 60

## CC(C)Oc1cncc(-c2ccc(NC(=O)C(C)(C)c3ccnc(NS(=O)(=O)C4CC4)n3)c(F)c2)n1
CTP synthase 1
  IC50: ≤ 100 nM
Homo sapiens
  Ratio IC50: 2

## CCOc1cncc(-c2ccc(NC(=O)C(CC)c3ccnc(NS(=O)(=O)C4CC4)n3)cc2)n1 (stereo unspecified)
CTP synthase 1
  IC50: ≤ 100 nM
Homo sapiens
  Ratio IC50: 30

## CCOc1cncc(-c2ccc(NC(=O)C(CCOC)c3ccnc(NS(=O)(=O)C4CC4)n3)nc2)n1 (stereo unspecified)
CTP synthase 1
  IC50: ≤ 100 nM
Homo sapiens
  Ratio IC50: > 60

## CCOc1cncc(-c2cnc(NC(=O)C(CC)c3ccnc(NS(=O)(=O)C4CC4)n3)c(C)c2)n1 (stereo unspecified)
CTP synthase 1
  IC50: ≤ 100 nM
Homo sapiens
  Ratio IC50: 2

## CCOc1cncc(-c2ccc(NC(=O)C3(c4ccnc(NS(=O)(=O)C5CC5)n4)CCOCC3)nc2)n1
CTP synthase 1
  IC50: ≤ 100 nM
Homo sapiens
  Ratio IC50: > 60

## CCOc1cncc(-c2ccc(NC(=O)C3(c4ccnc(NS(=O)(=O)C5CC5)n4)CCC4(CC3)OCCO4)nc2)n1
CTP synthase 1
  IC50: ≤ 100 nM
Homo sapiens
  Ratio IC50: > 60

## CCOc1cncc(-c2ccc(NC(=O)C3(c4ccnc(NS(=O)(=O)C5CC5)n4)CC3)cc2)n1
CTP synthase 1
  IC50: ≤ 100 nM
Homo sapiens
  Ratio IC50: > 60

## CCOc1cncc(-c2ccc(NC(=O)C(CC)c3ccnc(NS(=O)(=O)C4CC4)n3)c(F)c2)n1 (stereo unspecified)
CTP synthase 1
  IC50: ≤ 100 nM
Homo sapiens
  Ratio IC50: 2

## CCOc1cncc(-c2ccc(NC(=O)C3(c4cncc(NS(=O)(=O)C5CC5)n4)CCOCC3)nc2)n1
CTP synthase 1
  IC50: ≤ 100 nM
Homo sapiens
  Ratio IC50: > 60

## CCOc1cncc(-c2ccc(NC(=O)C(C)(C)c3ccnc(NS(=O)(=O)C4CC4)n3)c(C#N)c2)n1
CTP synthase 1
  IC50: ≤ 100 nM
Homo sapiens
  Ratio IC50: 2

## CCC(C(=O)Nc1ccc(-c2cncc(C(F)(F)F)n2)cn1)c1ccnc(NS(=O)(=O)C2CC2)n1 (stereo unspecified)
CTP synthase 1
  IC50: ≤ 100 nM
Homo sapiens
  Ratio IC50: 30

## CCOc1cncc(-c2ccc(NC(=O)C(C)(CC)c3ccnc(NS(=O)(=O)C4CC4)n3)nc2)n1 (stereo unspecified)
CTP synthase 1
  IC50: ≤ 100 nM
Homo sapiens
  Ratio IC50: > 60

## CCOc1cncc(-c2ccc(NC(=O)C(CC)c3ccnc(NS(=O)(=O)C4CC4)n3)c(C)c2)n1 (stereo unspecified)
CTP synthase 1
  IC50: ≤ 100 nM
Homo sapiens
  Ratio IC50: 2

## CCOc1cncc(-c2ccc(NC(=O)C(CCOC)c3ccnc(NS(=O)(=O)C4CC4)n3)cc2)n1 (stereo unspecified)
CTP synthase 1
  IC50: ≤ 100 nM
Homo sapiens
  Ratio IC50: 30

## CCOc1cncc(-c2ccc(NC(=O)C(CCOC)c3ccnc(NS(=O)(=O)C4CC4)n3)c(F)c2)n1 (stereo unspecified)
CTP synthase 1
  IC50: ≤ 100 nM
Homo sapiens
  Ratio IC50: > 60

## CC(C)Oc1cncc(-c2ccc(NC(=O)Cc3ccnc(NS(=O)(=O)C4CC4)n3)cc2)n1
CTP synthase 1
  IC50: ≤ 100 nM
Homo sapiens
  Ratio IC50: 30

## CCOc1cncc(-c2ccc(NC(=O)C3(c4ccnc(NS(=O)(=O)C5CC5)n4)CCCC3)nc2)n1
CTP synthase 1
  IC50: ≤ 100 nM
Homo sapiens
  Ratio IC50: > 60

## CCOc1cncc(-c2ccc(NC(=O)C3(c4ccnc(NS(=O)(=O)C5CC5)n4)CCOCC3)c(F)c2)n1
CTP synthase 1
  IC50: ≤ 100 nM
Homo sapiens
  Ratio IC50: > 60

## CCC(C(=O)Nc1ccc(-c2cncc(OCC(F)(F)F)n2)cc1F)c1ccnc(NS(=O)(=O)C2CC2)n1 (stereo unspecified)
CTP synthase 1
  IC50: ≤ 100 nM
Homo sapiens
  Ratio IC50: > 60

## CCOc1cncc(-c2ccc(C(=O)NC(CC)c3ccnc(NS(=O)(=O)C4CC4)n3)c(F)c2)n1 (stereo unspecified)
CTP synthase 1
  IC50: ≤ 100 nM
Homo sapiens
  Ratio IC50: > 60

## CC(C)Oc1cncc(-c2ccc(NC(=O)Cc3ccnc(NS(=O)(=O)C4CC4)n3)c(F)c2)n1
CTP synthase 1
  IC50: ≤ 100 nM
Homo sapiens
  Ratio IC50: 30

## CCC(C(=O)Nc1ncc(-c2cncc(OC)n2)cc1F)c1ccnc(NS(=O)(=O)C2CC2)n1 (stereo unspecified)
Homo sapiens
  Ratio IC50: 2

## CCOc1cncc(-c2ccc(NC(=O)Cc3ccnc(NS(=O)(=O)C4CC4)n3)cc2)n1
CTP synthase 1
  IC50: ≤ 100 nM
Homo sapiens
  Ratio IC50: 30

## CCOc1cncc(-c2ccc(NC(=O)C(CC)c3ccnc(NS(=O)(=O)C4CC4)n3)nc2)n1 (stereo unspecified)
CTP synthase 1
  IC50: ≤ 100 nM
Homo sapiens
  Ratio IC50: > 60

## CCOc1cncc(-c2ccc(NC(=O)C(C)(C)c3ccnc(NS(=O)(=O)C4CC4)n3)cc2)n1
CTP synthase 1
  IC50: ≤ 100 nM
Homo sapiens
  Ratio IC50: 2

## CC(C)Oc1cncc(-c2ccc(NC(=O)C(C)(C)c3ccnc(NS(=O)(=O)C4CC4)n3)nc2)n1
CTP synthase 1
  IC50: ≤ 100 nM
Homo sapiens
  Ratio IC50: > 60

## CCOc1cncc(-c2ccc(NC(=O)C(C)(C)c3ccnc(NS(C)(=O)=O)n3)nc2)n1
Homo sapiens
  Ratio IC50: 30

## CC(C)Oc1cncc(-c2ccc(C(=O)NC(C)(C)c3cncc(NS(=O)(=O)C4CC4)n3)c(F)c2)n1
Homo sapiens
  Ratio IC50: 2

## CC(C)(C(=O)Nc1ccc(-c2cncc(C3CC3)n2)cn1)c1ccnc(NS(=O)(=O)C2CC2)n1
Homo sapiens
  Ratio IC50: 30

## CCOc1cncc(-c2ccc(NC(=O)C(C)(C)c3cncc(NS(=O)(=O)C4CC4)n3)nc2)n1
CTP synthase 1
  IC50: ≤ 100 nM
Homo sapiens
  Ratio IC50: > 60

## CCOc1cncc(-c2ccc(NC(=O)C3(c4ccnc(NS(=O)(=O)C5CC5)n4)CCN(S(C)(=O)=O)CC3)nc2)n1
CTP synthase 1
  IC50: ≤ 100 nM
Homo sapiens
  Ratio IC50: > 60

## CC(C)(C(=O)Nc1ccc(-c2cncc(C3CC3)n2)cc1F)c1ccnc(NS(=O)(=O)C2CC2)n1
Homo sapiens
  Ratio IC50: 2

## CCOc1cncc(-c2ccc(NC(=O)C(F)(CC)c3ccnc(NS(=O)(=O)C4CC4)n3)nc2)n1 (stereo in doubt; form 3)
Homo sapiens
  Ratio IC50: > 60

## CCOc1cncc(-c2ccc(NC(=O)C3(c4ccnc(NS(=O)(=O)C5CC5)n4)CCC(=O)CC3)nc2)n1
CTP synthase 1
  IC50: ≤ 100 nM
Homo sapiens
  Ratio IC50: > 60

## CCOc1cncc(-c2ccc(C(=O)NCc3ccnc(NS(=O)(=O)C4CC4)n3)cc2)n1
CTP synthase 1
  IC50: ≤ 100 nM
Homo sapiens
  Ratio IC50: > 60

## CCOc1cncc(-c2ccc(NC(=O)C(F)(CC)c3ccnc(NS(C)(=O)=O)n3)nc2)n1 (stereo unspecified)
CTP synthase 1
  IC50: ≤ 100 nM
Homo sapiens
  Ratio IC50: > 60

## CCOc1cncc(-c2ccc(NC(=O)C3(c4ccnc(NS(=O)(=O)C5CC5)n4)CCCC3)cc2)n1
CTP synthase 1
  IC50: ≤ 100 nM
Homo sapiens
  Ratio IC50: > 60

## CCOc1cncc(-c2ccc(NC(=O)C(CC)c3cccc(NS(=O)(=O)C4CC4)n3)cc2)n1 (stereo unspecified)
Homo sapiens
  Ratio IC50: 30

## CCOc1cncc(-c2ccc(NC(=O)C(C)(C)c3nc(NS(=O)(=O)C4CC4)ncc3F)cc2)n1
Homo sapiens
  Ratio IC50: 30

## CCOc1cncc(-c2ccc(NC(=O)C3(c4ccnc(NS(=O)(=O)CC#N)n4)CCOCC3)nc2)n1
CTP synthase 1
  IC50: ≤ 100 nM
Homo sapiens
  Ratio IC50: > 60

## CCOc1cncc(-c2ccc(NC(=O)C3(c4ccnc(NS(=O)(=O)C5CC5)n4)CCC(N(C)C)CC3)nc2)n1 (stereo in doubt; form 1)
Homo sapiens
  Ratio IC50: > 60
